The text below walks through data of patent publication US8877483B2, “Dioxin elimination promoter” (priority 2002, dated 2014).

The series deals with liver cytochrome P450. Description: EPR spectra of rat liver after oral administration of PCB126 (construction of model animals). Conditions: rats, single forced oral dose 0, 0.3, 3, 30 or 100 μg/kg bw in corn oil, liver isolated 24 hour after administration; FIG. 1. It counts as in vivo. The procedure:
When the EPR measurement is carried out with rat liver as an experimental animal, the resonance absorption of an iron atom contained in cytochrome P450 protein is observed at a position of g=2.40. When dioxin were administered to a rat, an abnormal resonance absorption which is not observed in untreated case appears as a signal at a position of g=2.49, in addition to the normal resonance absorptions. Since the intensity of the abnormal signal becomes higher according to increase of an amount of dioxins administered, it can be a living body index showing a degree of pollution.
As laboratory animals, rats to which PCB 126 (3,3′,4,4′,5-pentachlorobiphenyl) had been administered were prepared. The rats were 6-week-old Sprangue-Dawley (purchased from Nippon Charles River). After acclimation rearing for about one week, they forcedly administered with solutions containing an adequate concentration of PCB 126 (manufactured by Wellington Laboratories; purity: 99.99% or more) dissolved in commercially available corn oil (manufactured by Hayashi Chemicals) so that the amount of cPCB was 0 (control), 0.3, 3, 30 or 100 μg/kg body weight (bw) in the same amount of corn oil through a probe. PCB-administered rats were euthanized with ether 24 hour after the administration. […] Then, tissue fragments were analyzed by an EPR measurement method. […]

Consider `Clc1ccc(-c2cc(Cl)c(Cl)c(Cl)c2)cc1Cl` [cPCB, 3,3′,4,4′,5-pentachlorobiphenyl], for which the “abnormal EPR signal at g=2.49 in liver tissue fragments” value is recorded as “intensity varies depending on the administered amount”.
